From patent publication US6537998B1, “Gonadotropin-releasing hormone receptor antagonists and methods relating thereto” (Neurocrine Biosciences, Inc., priority 1999, dated 2003)

What follows are compounds tested against T1, GnRH receptor (Homo sapiens, UniProt P30968) (assay: GnRH Receptor Membrane Binding Assay). Details: calculated from IC50 for displacement of radiolabeled ligand ([125I]-labeled GnRH peptide) from the GnRH receptor, Cheng-Prusoff.
T1 construct: expressed in transfected cells
T1 sequence (P30968 1-328): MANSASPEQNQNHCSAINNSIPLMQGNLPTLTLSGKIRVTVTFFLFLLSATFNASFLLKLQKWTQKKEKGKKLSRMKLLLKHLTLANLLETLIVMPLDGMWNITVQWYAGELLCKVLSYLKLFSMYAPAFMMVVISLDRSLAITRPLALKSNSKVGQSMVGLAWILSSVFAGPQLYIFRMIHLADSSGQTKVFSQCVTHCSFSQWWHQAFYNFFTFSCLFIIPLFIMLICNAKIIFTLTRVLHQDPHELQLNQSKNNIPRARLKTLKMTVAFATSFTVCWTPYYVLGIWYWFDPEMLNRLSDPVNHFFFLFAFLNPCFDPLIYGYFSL
Description: Activity of GnRH receptor antagonists are typically calculated from the IC50 as the concentration of a compound necessary to displace 50% of the radiolabeled ligand from the GnRH receptor, and is reported as a “Ki” value calculated by the following equation: [formula]
where L=radioligand and KD=affinity of radioligand for receptor (Cheng and Prusoff, Biochem. Pharmacol. 22:3099, 1973). GnRH receptor antagonists of this invention have a Ki of 100 μM or less. In a preferred embodiment of this invention, the GnRH receptor antagonists have a Ki of less than 10 μM, and more preferably less than 1 μM. More preferred compounds include: 1-1, 1-2-5, 12, 13-15, 19, 21, 27, 31, 32, 34, 37, 55, 58, 64, 73, 2B, 2D, 3A, 3B, 3D, 4A, 4B, 4C, 4D, 4G, 4H, 5A and 5B (see Examples below).
Radio-iodination of GnRH Peptide
The GnRH analog is labeled by the chloramine-T method. To 10 μg of peptide in 20 μl of 0.5M sodium phosphate buffer, pH 7.6, is added 1 mCi of Na125I, followed by 22.5 μg chloramine-T and the mixture vortexed for 20 sec. The reaction is stopped by the addition of 60 μg sodium metabisulfite and the free iodine is removed by passing the iodinated mixture through a C-8 Sep-Pak cartridge (Millipore Corp., Milford, Mass.). The peptide is eluted with a small volume of 80% acetonitrile/water. The recovered labeled peptide is further purified by reverse phase HPLC on a Vydac C-18 analytical column (The Separations Group, Hesperia, Calif.) on a Beckman 334 gradient HPLC system using a gradient of acetonitrile in 0.1% TFA. The purified radioactive peptide is stored in 0.1% BSA/20% acetonitrile/0.1% TFA at […] and can be used for up to 4 weeks.
GnRH Receptor Membrane Binding Assay
Cells stably, or transiently, transfected with GnRH receptor expression vectors are harvested, resuspended in 5% sucrose and homogenized using a polytron homogenizer (2×15 sec). Nuclei are removed by centrifugation (3000×g for 5 min.), and the supernatant centrifuged (20,000×g for 30 min, 4° C.) to collect the membrane fraction. The final membrane preparation is resuspended in binding buffer (10 mM Hepes (pH 7.5), 150 mM NaCl, and 0.1% BSA) and stored at −70° C. Binding reactions are performed in a Millipore MultiScreen 96-well filtration plate assembly with polyethylenimine coated GF/C membranes. The reaction is initiated by adding membranes (40 ug protein in 130 ul binding buffer) to 50 ul of [^125I]-labeled GnRH peptide (˜100,000 cpm), and 20 ul of competitor at varying concentrations. The reaction is terminated after 90 minutes by application of vacuum and washing (2×) with phosphate buffered saline. Bound radioactivity is measured using 96-well scintillation counting (Packard Topcount) or by removing the filters from the plate and direct gamma counting. Ki values are calculated from competition binding data using non-linear least squares regression using the Prism software package (GraphPad Software).

SMILES | Ki [nM]
COc1cccc(-c2c(C)n(Cc3ccccc3F)c3nc(C(C)(C)C)c(CN(C)CCc4ccccn4)n3c2=O)c1 [Example 1-1, 2-(tert-butyl)-3-[N-methyl-N-(2-pyridylethyl)aminomethyl]-5-(3-methoxyphenyl)-6-methyl-7-(2-fluorobenzyl)immidazolo[1,2-a]pyrimid-4-one] | < 1000
Cc1c(-c2ccccc2)c(=O)n2c(CN(C)Cc3ccco3)c(C(C)(C)C)nc2n1Cc1ccccc1F [Example 1-19] | < 1000
CC(=O)c1cccc(-c2c(C)n(Cc3ccccc3F)c3nc(C(C)(C)C)c(CN(C)Cc4ccccc4)n3c2=O)c1 [Example 1-31] | < 1000
COc1cccc(-c2c(C)n(Cc3ccccc3F)c3nc(C(C)(C)C)c(CN(C)[C@H](C)c4ccccc4)n3c2=O)c1 [Example 1-37] | < 1000
COC(=O)C(C)(C)c1nc2n(Cc3ccccc3F)c(C)c(-c3cccc(OC)c3)c(=O)n2c1CN(C)Cc1ccco1 [Example 4D] | < 1000
COC(=O)C(C)(C)c1nc2n(Cc3ccccc3F)c(C)c(-c3cccc(OC)c3)c(=O)n2c1CNCc1ccccn1 [Example 4G] | < 1000
CCOC(=O)Cc1nc2n(Cc3ccccc3F)c(C)c(-c3cccc(OC)c3)c(=O)n2c1CN(C)CCc1ccccn1 [Example 5A, 2-Ethoxycarbonylmethyl-3-{N-methyl-N-[2-(2-pyridyl)ethyl]aminomethyl}-5-(3-methoxyphenyl)-6-methyl-7-(2-fluorobenzyl)imidazolo[1,2-a]pyrimid-4-one] | < 1000

Other lines, results leading:

Ki [nM] | SMILES
< 1000 | COc1cccc(-c2c(C)n(Cc3ccccc3F)c3nc(C(C)(C)C)c(CN(C)Cc4ccccn4)n3c2=O)c1 [Example 1-12]
< 1000 | COc1cccc(-c2c(C)n(Cc3ccccc3F)c3nc(C4(C)CCOC4=O)c(CN(C)Cc4ccccc4)n3c2=O)c1 (stereo not shown) [Example 1-21]
< 1000 | COc1cccc(-c2c(C)n(Cc3ccccc3F)c3nc(C4(C)CCOC4=O)c(CN(C)Cc4ccco4)n3c2=O)c1 (stereo not shown) [Example 1-27]
< 1000 | CC(=O)c1cccc(-c2c(C)n(Cc3ccccc3F)c3nc(C(C)(C)C)c(CN(C)CCc4ccccn4)n3c2=O)c1 [Example 1-32]
< 1000 | Cc1c(-c2ccccc2F)c(=O)n2c(CN(C)CCc3ccccn3)c(C(C)(C)C)nc2n1Cc1ccccc1F [Example 1-55]
< 1000 | CCN(CC)CCN(C)Cc1c(C(C)(C)C)nc2n(Cc3ccccc3F)c(C)c(-c3ccc4c(c3)OCO4)c(=O)n12 [Example 1-73]
< 1000 | COC(=O)C(C)(C)c1nc2n(Cc3ccccc3F)c(C)c(-c3cccc(OC)c3)c(=O)n2c1CN(C)Cc1ccccc1 [Example 4A, 2-(1-methoxycarbonyl-1-methylethyl)-3-(N-methyl-N-benzylaminomethyl)-5-(3-methoxyphenyl)-6-methyl-7-(2-flurorbenzyl)imidazolo[1,2-a]pyrimid-4-one]
< 1000 | COC(=O)C(C)(C)c1nc2n(Cc3ccccc3F)c(C)c(-c3cccc(OC)c3F)c(=O)n2c1CN(C)CCc1ccccn1 [Example 4H]
< 1000 | CCOC(=O)Cc1nc2n(Cc3ccccc3F)c(C)c(-c3cccc(OC)c3)c(=O)n2c1CN(C)Cc1ccccc1 [Example 5B, 2-ethoxycarbonylmethyl-3-{N-methyl-N-benzyl)-5-(3-methoxyphenyl)-6-methyl-7-(2-fluorobenzyl)imidazolo[1,2-a]pyrimid-4-one]
